Assay results taken from patent US12306191B2, “Composition for diagnosis of degenerative neurological diseases” (KYUNGPOOK NATIONAL UNIVERSITY INDUSTRY—ACADEMIC COOPERATION …, priority 2018, dated 2025).

Assays:
[1] = target: SphK1 (Homo sapiens, UniProt Q9NYA1); details: read-out: KM of acetyl group binding to SphK1; in the presence of 10 mM sphingosine; FIG. 1a
[2] = test system: human-derived microglia; test: Western blotting of COX2 and ac-S565 in human-derived microglia treated with amyloid beta; format: cell-based; details: FIGS. 14a, 14b
Procedure: (§1) In addition, a Western blot sample was prepared by reacting a recombinant COX2 protein with aspirin and N-acetyl sphingosine (Sigma, 01912, N-AS). In addition, microglia were isolated from the cerebra of wild-type and APP/PS1 9-month-old mice to prepare a Western blot sample, and microglia (Applied Biologics Materials, USA) were incubated with amyloid beta, and then a Western blot sample was prepared. The prepared Western blot sample was subjected to electrophoresis on a polyacrylamide gel to isolate proteins, transferred to a nitrocellulose filter, and then bound with anti-ac-S565 (rabbit, 1:500), anti-COX2 (rabbit, 1:1,000, Abcam), and anti-actin (mouse, 1:1,000, Santa Cruz) antibodies, and then bands were shaped using secondary antibodies, and quantified and analyzed using ImageJ (National Institutes of Health, USA).
The present inventors created a neuroinflammatory environment by treating human-derived microglia with amyloid beta, and then reconfirmed the level of S565 acetylation of COX2 through Western blotting.

[3] = test system: human-derived microglia; test: Fluorescence immunostaining of COX2 and ac-S565 in human-derived microglia treated with amyloid beta; format: cell-based; details: FIGS. 13a, 13b
Procedure: In addition, cerebral tissues of wild-type and APP/PS1 9-month-old mice and human-derived microglia were incubated together with anti-ac-S565 (rabbit, 1:100), anti-COX2 (mouse, 1:500, Thermo Fisher Scientific), and anti-Iba1 (goat, 1:500, Abcam). In the cerebral tissues and the human-derived microglia, percentages of cells stained with anti-ac-S565, anti-COX2 and anti-Iba1 among cells stained with anti-COX2 and anti-Iba1 were quantified and analyzed using MetaMorph (Molecular Devices, USA).
The present inventors created a neuroinflammatory environment by treating human-derived microglia with amyloid beta, and then confirmed the level of S565 acetylation of COX2 through fluorescence immunostaining.

[4] = test system: COX2; test: COX2 acetylation analysis with [14C] N-acetyl sphingosine; format: cell-based, mouse; details: 2uCi [14C] N-acetyl sphingosine; FIG. 8c
Procedure: (§2) In order to measure neuroinflammatory resolution factor, nerve cells from the mouse's cerebrum were incubated and then treated with 10 nM N-acetyl sphingosine 1 phsosphate (Toronto Research chemicals, C262710) and N-acetyl sphingosine (Sigma, 01912) to prepare CM. For COX2 acetylation analysis, nerve cells were incubated from the mouse's cerebrum and treated with 2uCi [^14C] N-acetyl sphingosine (ARC, ARC1024) and then prepared. In addition, for an in vivo experiment, 5 mg/kg N-acetyl sphingosine (Sigma, 01912), 1 mg/kg FTY720, and 3 uM S1P were injected into 7-month-old APP/PS1 mice daily for 4 weeks through intraperitoneal injection.

[5] = target: T1, COX2 (Homo sapiens, UniProt P35354); test: LC-MS/MS identification of the acetylation site of COX2; format: biochemical; details: FIG. 8d
T1 sequence (P35354 18-604): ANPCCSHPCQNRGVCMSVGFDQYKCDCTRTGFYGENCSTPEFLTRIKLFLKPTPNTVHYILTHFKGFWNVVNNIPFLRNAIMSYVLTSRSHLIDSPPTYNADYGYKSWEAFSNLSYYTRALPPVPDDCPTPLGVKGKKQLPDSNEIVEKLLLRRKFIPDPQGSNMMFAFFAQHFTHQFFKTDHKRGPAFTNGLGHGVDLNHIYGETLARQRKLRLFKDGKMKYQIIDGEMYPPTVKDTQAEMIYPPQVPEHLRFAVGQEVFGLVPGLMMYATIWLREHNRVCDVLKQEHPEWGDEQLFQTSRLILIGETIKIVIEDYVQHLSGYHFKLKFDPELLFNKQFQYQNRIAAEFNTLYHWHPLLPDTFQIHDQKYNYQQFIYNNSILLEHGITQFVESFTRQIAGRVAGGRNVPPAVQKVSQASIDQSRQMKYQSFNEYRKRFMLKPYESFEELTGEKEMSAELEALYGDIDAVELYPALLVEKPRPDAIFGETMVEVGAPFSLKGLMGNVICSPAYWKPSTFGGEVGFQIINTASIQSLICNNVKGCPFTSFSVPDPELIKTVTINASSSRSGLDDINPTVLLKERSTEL
Procedure: To confirm an acetylation site of COX2, a COX2 enzyme was precipitated with trichroloacetic acid (Merck) and dried. The dried extract was resuspended in 10 μL of a 5 M urea solution, and a 0.1 M ammonium bicarbonate buffer was incubated at 37° C. with 1 μg trypsin (Promega) for 16 hours. Thereafter, the sample was treated with 1 M DTT (GE Healthcare) at room temperature for 1 hour and then alkylated with 1M iodoacetamide (Sigma) for 1 hour. A protein sample was loaded onto a ZORBAX 300SB-C18 column for sequencing. Peptides were identified with BioTools 3.2 SR5 (Bruker Daltonics).
In addition, it was confirmed that serine 565 (S565) for a peptide 560-[…]-575 of COX2 was acetylated in the presence of N-acetyl sphingosine (FIG. 8d).

[6] = test system: APP/PS1 mice; test: Morris Water Maze test of injected APP/PS1 mice; format: in vivo, mouse; details: 7-month-old APP/PS1 mice, i.p. daily 4 weeks; 5 mg/kg N-acetyl sphingosine, 1 mg/kg FTY720, 3 uM S1P; FIG. 9d
Procedure: In order to confirm potential effects on learning and memory, Morris water maze (MWM) and fear conditioning tests were performed. In the MWM, the mouse learned a task 4 times a day for 10 days, a platform was removed on day 11, and a probe trial was performed. In the fear conditioning, on day 1, the mouse was added in a conditioning chamber, and sound stimulation (10 kHz, 70 dB) and electrical stimulation (0.3 mA, 1 s) were applied. On day 2, the memory on a space was confirmed without stimulation in the same conditioning chamber as day 1, and on day 3, a memory test for fear was performed when only the sound stimulation was applied in another conditioning chamber. An open field test was performed to evaluate motor ability and immediate activity. In the open field test, the mouse was placed in a quadrangular box for 10 minutes and then overall motor ability and time and distances were measured.
In order to measure neuroinflammatory resolution factor, nerve cells from the mouse's cerebrum were incubated and then treated with 10 nM N-acetyl sphingosine 1 phsosphate (Toronto Research chemicals, C262710) and N-acetyl sphingosine (Sigma, 01912) to prepare CM. For COX2 acetylation analysis, nerve cells were incubated from the mouse's cerebrum and treated with 2uCi [^14C] N-acetyl sphingosine (ARC, ARC1024) and then prepared. […]

[7] = test system: APP/PS1 mice; test: Immunofluorescence of microglia (Iba1) and astrocytes (GFAP) in brain cortex of injected APP/PS1 mice; format: in vivo, mouse; details: 7-month-old APP/PS1 mice, i.p. daily 4 weeks, 5 mg/kg N-acetyl sphingosine, 1 mg/kg FTY720, 3 uM S1P; for microglia compared to APP/PS1 mice: FIG. 9a; for astrocytes compared to APP/PS1 mice: FIG. 9b
Procedure: (§3) After the cerebrum and the hippocampus of a mouse were immobilized, anti-20G10 against amyloid-β (Aβ) 42 (mouse, 1:1000) and anti-G30 against Aβ 40 (rabbit, 1:1000), anti-MAP2 (chicken, 1:2000), anti-Synaptophysin (mouse, 1:100), anti-Synapsin1 (rabbit, 1:500), anti-PSD95 (mouse, 1:100), anti-Iba-1 (rabbit, 1:500), and anti-GFAP (rabbit, 1:500) were incubated together. The sites were analyzed using a confocal laser scanning microscope or an Olympus BX51 microscope equipped with Fluoview SV1000 imaging software (Olympus FV1000, Japan). Percentages of areas of the stained sites to an area of total tissues were quantified using Metamorph software (Molecular Devices).
as §2
The present inventors confirmed AD lesions by injecting N-acetyl sphingosine, one of COX2 acetylating agents identified through the above experiment, into an APP/PS1 animal model. First, in order to determine an effect of N-acetyl sphingosine on neuroinflammatory response by secreting the neuroinflammatory resolution factor, changes in microglia and astrocytes were observed. […] However, when sphingosine derivatives FTY720 and S1P were injected, there was no difference in the activity of microglia and astrocytes compared to the Alzheimer's animal model, and there was no effect of reducing Aβ deposition and improving memory (FIGS. 9a and 9b).

[8] = test system: APP/PS1 mice; test: Thioflavin S staining of Aβ plaques in brain of injected APP/PS1 mice; format: in vivo, mouse; details: 7-month-old APP/PS1 mice, i.p. daily 4 weeks; 5 mg/kg N-acetyl sphingosine, 1 mg/kg FTY720, 3 uM S1P; FIG. 9c
Procedure: as §3
as §2, with “injection. […]” for “injection.”

[9] = test system: APP/PS1 nerve cells; test: Secretion of neuroinflammatory resolution factor in APP/PS1 nerve cells treated with COX2 acetylating agent; format: cell-based, mouse; details: 10 nM, FIG. 8b
Procedure: A commercially available ELISA kit (Biosource) was used, and the hemispheres of mice were homogenized and added in a buffer containing 0.02 M of guanidine to prepare a sample for Aβ ELISA. In order to measure neuroinflammatory resolution factor, nerve cells from the mouse cerebrum were incubated to prepare conditioned media (CM). Thereafter, according to the manufacturer's manual, ELISA for Aβ and SPM was performed.
as §2
First, in order to confirm whether the selected compounds promote the secretion of neuroinflammatory resolution factor in nerve cells, APP/PS1 nerve cells were treated with N-acetyl sphingosine 1 phsosphate or N-acetyl sphingosine, and then the expression levels of the neuroinflammatory resolution factor were confirmed. As a result, it was confirmed that the expression levels of LxA4 and RvE1 in nerve cells of APP/PS1 mice were recovered when treated with N-acetyl sphingosine 1 phsosphate or N-acetyl sphingosine (FIG. 8b).

[10] = target: T1, COX2; test: Western blot of recombinant COX2 protein with ac-S565 antibody after aspirin or N-AS treatment; format: biochemical; details: FIG. 10
Procedure: as §1

Sequence of SphK1 (Q9NYA1 whole entry, species assumed): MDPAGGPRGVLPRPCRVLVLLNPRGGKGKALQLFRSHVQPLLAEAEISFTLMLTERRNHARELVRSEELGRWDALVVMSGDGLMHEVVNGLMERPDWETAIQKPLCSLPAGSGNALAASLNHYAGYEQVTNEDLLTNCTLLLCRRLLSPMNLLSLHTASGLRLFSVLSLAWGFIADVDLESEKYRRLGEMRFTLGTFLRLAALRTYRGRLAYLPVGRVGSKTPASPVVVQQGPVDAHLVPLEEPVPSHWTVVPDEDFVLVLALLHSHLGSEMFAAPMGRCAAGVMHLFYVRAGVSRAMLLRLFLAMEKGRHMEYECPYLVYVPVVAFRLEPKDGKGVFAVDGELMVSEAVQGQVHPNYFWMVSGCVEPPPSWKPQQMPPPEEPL

CC(=O)SCCNC(=O)CCNC(=O)[C@H](O)C(C)(C)COP(=O)(O)OP(=O)(O)OC[C@H]1O[C@@H](n2cnc3c(N)ncnc32)[C@H](O)[C@@H]1OP(=O)(O)O [acetyl-CoA]
Km [1]: 58.2 µM

amyloid beta: amyloid beta used to treat human-derived microglia to create a neuroinflammatory environment
S565 acetylation of COX2 in microglia [2]: decreased
expression of COX2 in microglia [2]: increased
S565 acetylation of COX2 in microglia [3]: decreased
expression of COX2 in microglia [3]: increased

CCCCCCCCCCCCC/C=C/[C@@H](O)[C@H](CO)NC(C)=O [N-acetyl sphingosine]
COX2 acetylation compared with sample mixed with SphK1, acetyl-CoA and sphingosine [4]: more acetylation
acetylation of serine 565 (S565) of COX2 peptide 560-575 [5]: acetylated
memory and cognition [6]: improved
microglia compared to APP/PS1 mice [7]: remarkable decrease
astrocytes compared to APP/PS1 mice [7]: remarkable decrease
amount of Aβ / Aβ deposition compared to APP/PS1 mice [8]: significantly lowered
expression level of LxA4 [9]: recovered
expression level of RvE1 [9]: recovered
ac-S565 band of treated COX2 in Western blot (S565 acetylation) [10]: strongly shown

CCCCCCCCCCCCC/C=C/[C@@H](O)[C@H](COP(=O)(O)O)NC(C)=O [N-acetyl sphingosine 1 phsosphate]
expression level of LxA4 [9]: recovered
expression level of RvE1 [9]: recovered

CCCCCCCCc1ccc(CCC(N)(CO)CO)cc1 [FTY720]
microglia compared to APP/PS1 mice [7]: no difference
astrocytes compared to APP/PS1 mice [7]: no difference

CC(=O)Oc1ccccc1C(=O)O [aspirin]
ac-S565 band of treated COX2 in Western blot (S565 acetylation) [10]: hardly detected

CCCCCCCCCCCCC/C=C/[C@@H](O)[C@@H](N)COP(=O)(O)O [S1P, sphingosine-1-phosphate]
memory and cognition [6]: no effect
microglia compared to APP/PS1 mice [7]: no difference
astrocytes compared to APP/PS1 mice [7]: no difference
amount of Aβ / Aβ deposition compared to APP/PS1 mice [8]: no effect
